Assay results from patent US20190016689A1, “NOVEL FLUORINATED QUINAZOLINE DERIVATIVES AS EGFR INHIBITORS” (TRILLIUM THERAPEUTICS INC., priority 2016, published 2019).

Assays:
[1] = Chemical stability in simulated intestinal fluid; type: physicochemical; details: 37° C.
Description: For SIF: Dissolve 6.8 g of KH2PO4 into about 500 mL ultrapure water and adjust the solution to a pH 6.8 with 0.1 M NaOH. Dissolve 10 g of trypsin into ultrapure water. Then the two solutions are mixed well and diluted with ultrapure water to 1000 mL.
(§1) The working solutions of test compound and control compound chlorambucil are prepared in DMSO at the concentration of 500 μM.
(§2) Place 2 μL of working solution of each sample in order into their proper 96-well rack. Add 198 μL of pre-incubated PBS pH 7.4 or simulated intestinal fluid into each vial of the cap-less Sample plate to achieve a final concentration of […]. The assay is performed in duplicate. Seal using a molded PTFE/Silicone plug. Then transfer the Sample plate to the Eppendorf Thermomixer Comfort plate shaker and shake at 37° C. at 1100 RPM. Take one of the glass vials at designated time points including 0, 30, 60, 120 and 240 min. For each time point, the initiation of the reaction is staggered so all time points are terminated with 1000 μL of cold quench solution (acetonitrile containing internal standards (IS, 200 nM Labetalol, 100 nM Alprazolam and 2 μM Ketoprofen) at the same time. Vortex for 1 minute. Centrifuge the samples in plate at 3,220 g for 5 minutes at 4° C. Transfer 100 μL of the supernatant to a new plate. The supernatant may be diluted with 100 μL or 200 μL water according to the LC/MS signal response and peak shape. Mix well and analyze samples using LC/MS/MS.

[2] = Chemical stability in PBS pH 7.4; type: physicochemical; details: 37° C.
Description: For PBS pH7.4: Prepare 100 mM bulk Na2HPO4 solution and 100 mM bulk NaH2PO4 solution. Place Na2HPO4 solution on a stirrer and slowly add NaH2PO4 solution until the pH is nearly 7.4 (±0.05).
as §1, §2

[3] = Log P determination (HPLC with reference substances); type: physicochemical; details: HPLC retention against reference substances of known log P
Description: Prepare thiourea in acetonitrile and ultrapure water mixture (1:1 in v:v) as unretained organic substance sample. Prepare acetanilide, methyl benzoate, benzophenone, benzyl benzoate, fluoranthene and DDT in acetonitrile and ultrapure water mixture (1:1 in v:v) as reference substances mixture.
Prepare the stock solutions of test compounds and control compound progesterone in acetonitrile at the concentration of 2 mM. Dilute one volume of the stock solution with one volume of ultrapure water. If not soluble, filtrate the sample using a 0.45 μm nylon membrane.
Prepare acidic or basic mobile phase according to the character of test compounds. Run a blank sample (ultrapure water mixture (1:1 in v:v)), followed by unretained organic substance sample and reference substances mixture. Then run the test compounds and control compound in singlet, and at the end of the batch rerun the reference substances mixture.

EPHA4 = target: T1, EPHA4 (Homo sapiens, UniProt P54764); experiment: Binding to EPHA (kinase competition binding, qPCR); details: 300 nM, read-out: % Control @ 300 nM
T1 construct: T7 phage fusion (kinase-tagged phage) or DNA tag for qPCR; made in house; host or cells: E. coli BL21-derived host (T7 phage) or HEK-293
Description: (§3) The lysates were centrifuged and filtered to remove cell debris. […] All reactions were performed in polystyrene 96-well plates in a final volume of 0.135 ml.

EPHA7 = target: T2, EPHA7 (Homo sapiens, UniProt Q15375); experiment: Binding to EPHA (kinase competition binding, qPCR); details: 300 nM, read-out: % Control @ 300 nM
T2 construct: T7 phage fusion (kinase-tagged phage) or DNA tag for qPCR; made in house; host or cells: E. coli BL21-derived host (T7 phage) or HEK-293
Description: as §3

EPHA1 = target: T3, EPHA1 (Homo sapiens, UniProt P21709); experiment: Binding to EPHA (kinase competition binding, qPCR); details: 300 nM, read-out: % Control @ 300 nM
T3 construct: T7 phage fusion (kinase-tagged phage) or DNA tag for qPCR; made in house; host or cells: E. coli BL21-derived host (T7 phage) or HEK-293
Description: as §3

EPHA8 = target: T4, EPHA8 (Homo sapiens, UniProt P29322); experiment: Binding to EPHA (kinase competition binding, qPCR); details: 300 nM, read-out: % Control @ 300 nM
T4 construct: T7 phage fusion (kinase-tagged phage) or DNA tag for qPCR; made in house; host or cells: E. coli BL21-derived host (T7 phage) or HEK-293
Description: as §3

EPHA5 = target: T5, EPHA5 (Homo sapiens, UniProt P54756); experiment: Binding to EPHA (kinase competition binding, qPCR); details: 300 nM, read-out: % Control @ 300 nM
T5 construct: T7 phage fusion (kinase-tagged phage) or DNA tag for qPCR; made in house; host or cells: E. coli BL21-derived host (T7 phage) or HEK-293
T5 sequence (P54756 25-1037): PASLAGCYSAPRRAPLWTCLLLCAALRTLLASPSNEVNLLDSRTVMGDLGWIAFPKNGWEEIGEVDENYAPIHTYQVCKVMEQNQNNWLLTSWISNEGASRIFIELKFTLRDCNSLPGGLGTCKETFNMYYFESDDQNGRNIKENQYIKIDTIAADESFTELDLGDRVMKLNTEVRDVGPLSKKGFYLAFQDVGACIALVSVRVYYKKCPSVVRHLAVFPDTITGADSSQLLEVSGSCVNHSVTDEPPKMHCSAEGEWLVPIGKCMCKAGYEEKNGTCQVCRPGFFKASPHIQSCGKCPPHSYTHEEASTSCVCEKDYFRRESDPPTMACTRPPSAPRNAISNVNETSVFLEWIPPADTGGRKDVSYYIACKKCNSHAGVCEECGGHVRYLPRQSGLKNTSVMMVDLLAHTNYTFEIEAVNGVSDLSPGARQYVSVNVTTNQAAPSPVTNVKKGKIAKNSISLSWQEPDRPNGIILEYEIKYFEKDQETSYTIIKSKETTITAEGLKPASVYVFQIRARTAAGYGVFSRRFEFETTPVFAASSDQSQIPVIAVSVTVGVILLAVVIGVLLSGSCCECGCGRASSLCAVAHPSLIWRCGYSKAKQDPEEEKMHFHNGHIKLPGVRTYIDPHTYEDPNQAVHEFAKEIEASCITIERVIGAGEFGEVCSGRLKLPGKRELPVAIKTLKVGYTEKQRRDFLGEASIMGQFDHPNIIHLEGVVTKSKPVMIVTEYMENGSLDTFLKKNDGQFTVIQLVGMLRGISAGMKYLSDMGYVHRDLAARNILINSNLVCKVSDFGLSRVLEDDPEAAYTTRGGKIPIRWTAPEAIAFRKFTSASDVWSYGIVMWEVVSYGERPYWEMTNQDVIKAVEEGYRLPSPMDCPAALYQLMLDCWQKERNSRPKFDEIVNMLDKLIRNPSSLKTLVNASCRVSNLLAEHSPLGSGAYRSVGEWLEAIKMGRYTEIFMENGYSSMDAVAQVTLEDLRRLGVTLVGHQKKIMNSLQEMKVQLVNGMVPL
Description: as §3

EPHA3 = target: T6, EPHA3 (Homo sapiens, UniProt P29320); experiment: Binding to EPHA (kinase competition binding, qPCR); details: 300 nM, read-out: % Control @ 300 nM
T6 construct: T7 phage fusion (kinase-tagged phage) or DNA tag for qPCR; made in house; host or cells: E. coli BL21-derived host (T7 phage) or HEK-293
T6 sequence (P29320 21-983): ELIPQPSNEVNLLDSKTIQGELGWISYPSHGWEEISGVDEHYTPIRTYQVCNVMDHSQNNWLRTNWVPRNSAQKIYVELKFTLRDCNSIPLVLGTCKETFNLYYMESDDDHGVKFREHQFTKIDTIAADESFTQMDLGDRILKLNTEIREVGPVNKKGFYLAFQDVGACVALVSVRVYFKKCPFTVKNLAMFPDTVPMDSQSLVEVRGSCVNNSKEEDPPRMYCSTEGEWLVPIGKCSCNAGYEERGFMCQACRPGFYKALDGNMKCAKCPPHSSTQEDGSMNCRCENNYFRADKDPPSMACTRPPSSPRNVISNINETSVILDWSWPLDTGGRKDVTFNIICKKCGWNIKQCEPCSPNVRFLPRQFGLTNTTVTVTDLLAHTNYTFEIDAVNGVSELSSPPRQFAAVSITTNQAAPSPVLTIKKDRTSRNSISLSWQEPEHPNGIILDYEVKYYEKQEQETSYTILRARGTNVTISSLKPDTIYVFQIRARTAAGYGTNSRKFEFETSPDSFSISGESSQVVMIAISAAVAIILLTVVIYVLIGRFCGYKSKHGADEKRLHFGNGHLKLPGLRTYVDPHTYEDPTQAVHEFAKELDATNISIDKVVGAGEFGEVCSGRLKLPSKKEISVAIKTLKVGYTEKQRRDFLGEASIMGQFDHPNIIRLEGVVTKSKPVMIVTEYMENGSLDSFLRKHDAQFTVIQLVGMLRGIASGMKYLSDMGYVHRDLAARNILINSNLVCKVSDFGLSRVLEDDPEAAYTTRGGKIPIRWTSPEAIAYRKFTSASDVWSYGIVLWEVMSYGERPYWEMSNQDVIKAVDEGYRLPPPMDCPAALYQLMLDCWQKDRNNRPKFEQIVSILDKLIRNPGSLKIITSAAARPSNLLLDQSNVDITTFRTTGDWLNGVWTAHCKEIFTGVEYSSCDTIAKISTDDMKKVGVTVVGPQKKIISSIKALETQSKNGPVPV
Description: as §3

EPHA2 = target: T7, EPHA2 (Homo sapiens, UniProt P29317); experiment: Binding to EPHA (kinase competition binding, qPCR); details: 300 nM, read-out: % Control @ 300 nM
T7 construct: T7 phage fusion (kinase-tagged phage) or DNA tag for qPCR; made in house; host or cells: E. coli BL21-derived host (T7 phage) or HEK-293
Description: as §3

[4] = target: EGFR (L747-E749del, A750P) (Homo sapiens, UniProt P00533, A750P/DEL747-749); experiment: Kinase assays, selectivity panel (qPCR); details: read-out: % Control @ 300 nM
EGFR (L747-E749del, A750P), sequence (P00533 with tags, fused parts or gaps DEL747-749/A750P): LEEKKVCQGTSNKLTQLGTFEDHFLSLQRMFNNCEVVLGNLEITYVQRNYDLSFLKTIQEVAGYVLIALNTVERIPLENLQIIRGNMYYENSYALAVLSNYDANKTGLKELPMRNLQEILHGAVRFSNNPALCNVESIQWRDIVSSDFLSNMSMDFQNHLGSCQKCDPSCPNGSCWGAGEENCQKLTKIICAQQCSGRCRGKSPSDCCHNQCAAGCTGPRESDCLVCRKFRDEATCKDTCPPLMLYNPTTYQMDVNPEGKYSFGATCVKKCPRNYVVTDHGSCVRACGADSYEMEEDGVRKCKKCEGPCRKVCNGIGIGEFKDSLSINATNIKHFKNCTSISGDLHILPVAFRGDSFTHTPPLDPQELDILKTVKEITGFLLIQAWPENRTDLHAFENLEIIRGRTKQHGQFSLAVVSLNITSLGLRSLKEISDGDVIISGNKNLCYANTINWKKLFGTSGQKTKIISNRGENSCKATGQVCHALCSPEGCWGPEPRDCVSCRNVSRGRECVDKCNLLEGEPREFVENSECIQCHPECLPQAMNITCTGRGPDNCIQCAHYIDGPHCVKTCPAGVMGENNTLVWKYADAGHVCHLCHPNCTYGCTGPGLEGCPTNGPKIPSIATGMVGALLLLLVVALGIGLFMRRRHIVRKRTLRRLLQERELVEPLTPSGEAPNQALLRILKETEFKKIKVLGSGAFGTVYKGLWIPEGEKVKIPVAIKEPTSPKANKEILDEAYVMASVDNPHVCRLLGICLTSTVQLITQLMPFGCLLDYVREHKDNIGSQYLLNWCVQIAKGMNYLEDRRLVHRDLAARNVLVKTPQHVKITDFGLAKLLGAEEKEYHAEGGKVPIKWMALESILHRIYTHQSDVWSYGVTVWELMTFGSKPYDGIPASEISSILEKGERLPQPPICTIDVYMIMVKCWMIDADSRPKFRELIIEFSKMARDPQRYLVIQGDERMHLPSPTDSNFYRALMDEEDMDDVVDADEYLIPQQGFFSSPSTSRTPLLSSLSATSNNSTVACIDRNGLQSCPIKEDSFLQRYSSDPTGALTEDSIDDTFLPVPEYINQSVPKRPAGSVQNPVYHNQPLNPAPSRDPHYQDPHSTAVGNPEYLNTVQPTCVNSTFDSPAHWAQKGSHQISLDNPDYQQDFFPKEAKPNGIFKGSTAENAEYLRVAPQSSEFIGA

HCT-15 = experiment: NCI screening panel (SRB); type: cell-based; details: Homo sapiens, HCT-15 (Colon), 48 h; for CC50: read-out: LC50 (the source's name)
EGFR (L858R, T790M) = EGFR (L858R, T790M) (Homo sapiens, UniProt P00533, L858R/T790M); experiment: Kinase assays, selectivity panel (qPCR); details: read-out: % Control @ 300 nM
MOLT-4 = experiment: NCI screening panel (SRB); type: cell-based; details: Homo sapiens, MOLT-4 (Leukemia), 48 h; for CC50: read-out: LC50 (the source's name)
M14 = experiment: cells; details: Homo sapiens, M14, 48 h; for CC50: read-out: LC50
OVCAR-3 = experiment: NCI screening panel (SRB); details: Homo sapiens, OVCAR-3, 48 h; for CC50: read-out: LC50
T-47D = experiment: NCI screening panel (SRB); type: cell-based; details: Homo sapiens, T47D, T-47D (Breast), 48 h; for CC50: read-out: LC50 (the source's name)
A549/ATCC = experiment: NCI screening panel (SRB); type: cell-based; details: Homo sapiens, A549/ATCC (NSCLC), 48 h; for CC50: read-out: LC50 (the source's name)
BT-549 = experiment: NCI screening panel (SRB); type: cell-based; details: Homo sapiens, BT-549 (Breast), 48 h; for CC50: read-out: LC50 (the source's name)
PC-3 = experiment: NCI screening panel (SRB); type: cell-based; details: Homo sapiens, PC-3 (Prostate), 48 h; for CC50: read-out: LC50 (the source's name)
COLO205 = experiment: NCI screening panel (SRB); type: cell-based; details: Homo sapiens, COLO 205, COLO205 (Colon), 48 h; for CC50: read-out: LC50 (the source's name)
ERBB2 = ERBB2 (Homo sapiens, UniProt P04626); experiment: Kinase assays, selectivity panel (qPCR); details: read-out: % Control @ 300 nM
ERBB2, sequence (P04626 23-1255): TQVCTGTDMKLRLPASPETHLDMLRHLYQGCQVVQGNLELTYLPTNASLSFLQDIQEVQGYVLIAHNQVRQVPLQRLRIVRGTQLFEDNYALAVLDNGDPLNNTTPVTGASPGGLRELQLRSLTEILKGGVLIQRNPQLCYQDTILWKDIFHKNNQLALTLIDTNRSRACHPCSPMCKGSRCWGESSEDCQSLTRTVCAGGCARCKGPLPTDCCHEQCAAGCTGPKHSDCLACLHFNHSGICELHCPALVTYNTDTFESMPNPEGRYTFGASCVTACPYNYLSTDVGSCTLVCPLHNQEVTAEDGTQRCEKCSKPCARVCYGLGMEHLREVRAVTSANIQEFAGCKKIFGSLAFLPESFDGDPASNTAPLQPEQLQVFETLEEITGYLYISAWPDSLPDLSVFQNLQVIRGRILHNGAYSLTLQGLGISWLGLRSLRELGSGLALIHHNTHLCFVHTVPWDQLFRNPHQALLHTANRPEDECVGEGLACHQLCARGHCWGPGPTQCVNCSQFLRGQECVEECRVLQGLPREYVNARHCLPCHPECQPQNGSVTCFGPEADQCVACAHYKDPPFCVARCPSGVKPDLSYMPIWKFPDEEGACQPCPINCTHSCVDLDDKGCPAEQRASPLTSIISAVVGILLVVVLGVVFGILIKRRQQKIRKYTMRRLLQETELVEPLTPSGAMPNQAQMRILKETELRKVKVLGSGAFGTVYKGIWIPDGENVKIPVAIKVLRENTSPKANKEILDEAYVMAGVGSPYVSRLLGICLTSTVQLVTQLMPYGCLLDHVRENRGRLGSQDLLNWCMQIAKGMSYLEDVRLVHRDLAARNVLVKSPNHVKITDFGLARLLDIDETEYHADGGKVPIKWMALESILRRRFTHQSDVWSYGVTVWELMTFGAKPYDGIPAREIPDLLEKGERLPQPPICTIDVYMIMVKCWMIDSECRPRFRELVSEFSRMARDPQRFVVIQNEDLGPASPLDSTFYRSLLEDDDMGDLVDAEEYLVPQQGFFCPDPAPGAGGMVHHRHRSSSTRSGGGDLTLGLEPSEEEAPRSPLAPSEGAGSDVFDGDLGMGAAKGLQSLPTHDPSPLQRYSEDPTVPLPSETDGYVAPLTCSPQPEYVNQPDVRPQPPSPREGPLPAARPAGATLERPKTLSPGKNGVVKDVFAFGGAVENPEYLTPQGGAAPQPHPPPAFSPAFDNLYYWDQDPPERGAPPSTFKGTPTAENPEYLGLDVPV

For `CN(C)C/C=C/C(=O)Nc1cc2c(Nc3ccc(F)c(Cl)c3)ncnc2cc1O[C@H]1CCOC1` [Afatinib, reference compound], the “Remaining Percentage (%) in Simulated Intestinal Fluid” value ([1]; 120 min) was 104.51%, the “Remaining Percentage (%) in Simulated Intestinal Fluid” value ([1]; 240 min) was 104.31% and the “Remaining Percentage (%) in PBS at pH 7.4” value ([2]; 120 min) was 101.12%. For the same compound, the “Remaining Percentage (%) in PBS at pH 7.4” value ([2]; 240 min) was 105.37% and the chromatographic logP [3] was 4.26.
For `CN(C)C/C=C/C(=O)Nc1cc2c(Nc3cccc(Cl)c3F)ncnc2cc1OCCOC(F)F.O=C(O)/C=C\C(=O)O` [Example I-5-MA, (E)-N-[4-(3-chloro-2-fluoro-anilino)-7-[2-(difluoromethoxy)ethoxy]quinazolin-6-yl]-4-(dimethylamino)but-2-enamide dimaleic acid salt], the “Remaining Percentage (%) in Simulated Intestinal Fluid” value ([1]; 120 min) was 97.51%, the “Remaining Percentage (%) in Simulated Intestinal Fluid” value ([1]; 240 min) was 91.51% and the “Remaining Percentage (%) in PBS at pH 7.4” value ([2]; 120 min) was 94.70%. For the same compound, the “Remaining Percentage (%) in PBS at pH 7.4” value ([2]; 240 min) was 91.17% and the chromatographic logP [3] was 3.57.
`CN(C)C/C=C/C(=O)Nc1cc2c(Nc3ccc(F)c(Cl)c3F)ncnc2cc1OCCOC(F)F.O=C(O)/C=C\C(=O)O.O=C(O)/C=C\C(=O)O` [Example I-9-MA, (E)-N-[4-(3-chloro-2,4-difluoro-anilino)-7-[2-(difluoromethoxy)ethoxy]quinazolin-6-yl]-4-(dimethylamino)but-2-enamide di-maleic acid salt] showed a remaining binding at 0.3 µM (EPHA4) of 51%, a remaining binding at 0.3 µM (EPHA7) of 56% and a remaining binding at 0.3 µM (EPHA1) of 34%. The remaining binding at 0.3 µM (EPHA8) was 40%, the remaining binding at 0.3 µM (EPHA5) was 51% and the remaining binding at 0.3 µM (EPHA3) was 46%. For the same compound, the remaining binding at 0.3 µM (EPHA2) was 92%, the remaining activity at 0.3 µM [4] was 0.45% and the GI50 (HCT-15) was 675 nM. The CC50 (HCT-15) was 9460 nM, the remaining activity at 0.3 µM (EGFR (L858R, T790M)) was 3.5% and the GI50 (MOLT-4) was 849 nM. The CC50 (MOLT-4) was 47500 nM, the GI50 (M14) was 1440 nM and the CC50 (M14) was 11000 nM. For the same compound, the GI50 (OVCAR-3) was 81.1 nM, the CC50 (OVCAR-3) was 7440 nM and the GI50 (T-47D) was under 10 nM. The CC50 (T-47D) was 88100 nM, the GI50 (A549/ATCC) was 770 nM and the CC50 (A549/ATCC) was 36300 nM. For the same compound, the GI50 (BT-549) was 1690 nM, the CC50 (BT-549) was 32200 nM and the GI50 (PC-3) was 2550 nM. The CC50 (PC-3) was 58500 nM, the GI50 (COLO205) was 1230 nM and the CC50 (COLO205) was 31700 nM. The remaining activity at 0.3 µM (ERBB2) was 0%.
With `O=C(/C=C/CN1CCCCC1)Nc1cc2c(Nc3ccc(F)c(Cl)c3F)ncnc2cc1OCCOC(F)F.O=C(O)/C=C\C(=O)O.O=C(O)/C=C\C(=O)O` [Example I-10-MA, (E)-N-[4-(3-chloro-2,4-difluoro-anilino)-7-[2-(difluoromethoxy)ethoxy]quinazolin-6-yl]-4-(1-piperidyl)but-2-enamide di-maleic acid salt] the remaining binding at 0.3 µM (EPHA4) was 50%, the remaining binding at 0.3 µM (EPHA7) was 40% and the remaining binding at 0.3 µM (EPHA1) was 24%. It also gave a remaining binding at 0.3 µM (EPHA8) of 33%, a remaining binding at 0.3 µM (EPHA5) of 49% and a remaining binding at 0.3 µM (EPHA3) of 45%. For the same compound, the remaining binding at 0.3 µM (EPHA2) was 80%, the remaining activity at 0.3 µM [4] was 0.9% and the GI50 (HCT-15) was 1340 nM. The CC50 (HCT-15) was 23000 nM, the remaining activity at 0.3 µM (EGFR (L858R, T790M)) was 2.4% and the GI50 (MOLT-4) was 1120 nM. The CC50 (MOLT-4) was 98400 nM, the GI50 (M14) was 1820 nM and the CC50 (M14) was over 100000 nM. For the same compound, the GI50 (OVCAR-3) was 390 nM, the CC50 (OVCAR-3) was 16800 nM and the GI50 (T-47D) was 81.4 nM. For the same compound, the CC50 (T-47D) was over 100000 nM, the GI50 (A549/ATCC) was 1000 nM and the CC50 (A549/ATCC) was 36600 nM. It also gave a GI50 (BT-549) of 2470 nM, a CC50 (BT-549) of 36200 nM and a GI50 (PC-3) of 2380 nM. It also gave a CC50 (PC-3) of 51000 nM, a GI50 (COLO205) of 1740 nM and a CC50 (COLO205) of over 100000 nM. For the same compound, the remaining activity at 0.3 µM (ERBB2) was 0.05%.
